{
  "source": "patent US20250234864A1",
  "about": "(priority 2022, published 2025)",
  "key": {"Pyricularia oryzae [1]": {"system": "Pyricularia oryzae", "assay": "whole plant or invertebrate", "assay_type": "in vivo", "settings": "rice seedlings, spray before inoculation; for pest or weed control at 0.01 ppm: read-out: Control Efficacy, spray concentration 0.01 ppm; for pest or weed control at 1 ppm: read-out: Control Efficacy, spray concentration 1 ppm; for pest or weed control at 25 ppm: read-out: Control Efficacy, spray concentration 25 ppm; for pest or weed control at 100 ppm: read-out: Control Efficacy, spray concentration 100 ppm"}, "Pyricularia oryzae [2]": {"system": "Pyricularia oryzae", "assay_type": "in vivo", "settings": "spray after lesions on rice seedlings, two natural infections"}},
  "note": "“And” between values parts separate entries of the source, which are not always exact repeats. Equal entries are not always repeated. Where two headings read alike, the source gives them in different places.",
  "data": [
    {"compound": "CC(C1CC1)C(O)(Cn1cncn1)c1ccc(Cl)cc1", "note": "(centres unmarked) [Ciproconazole]", "values": [
      {"measurement": "Control Efficacy", "setting": "Pyricularia oryzae [1]; spray concentration 10 ppm", "value": 11}
    ]},
    {"compound": "CC1COC(Cn2cncn2)(c2ccc(Oc3ccc(Cl)cc3)cc2Cl)O1", "note": "(centres unmarked) [Diphenoconazole]", "values": [
      {"measurement": "Control Efficacy", "setting": "Pyricularia oryzae [1]; spray concentration 50 ppm", "value": 62},
      {"measurement": "Control Efficacy", "setting": "Pyricularia oryzae [1]; spray concentration 100 ppm", "value": 86}
    ]},
    {"compound": "CO/N=C(/C1=NOCCO1)c1ccccc1Oc1ncnc(Oc2ccccc2Cl)c1F", "note": "[Fluoxastrobin]", "values": [
      {"measurement": "pest or weed control at 0.01 ppm", "setting": "Pyricularia oryzae [1]; Pyricularia oryzae", "value": 22, "unit": "%"},
      {"measurement": "pest or weed control at 1 ppm", "setting": "Pyricularia oryzae [1]; Pyricularia oryzae", "value": 93, "unit": "%"}
    ]},
    {"compound": "CCCCC(O)(Cn1cncn1)c1ccc(Cl)cc1Cl", "note": "(centres unmarked) [Hexaconazole]", "values": [
      {"measurement": "pest or weed control at 25 ppm", "setting": "Pyricularia oryzae [1]; Pyricularia oryzae", "value": 55, "unit": "%"},
      {"measurement": "pest or weed control at 100 ppm", "setting": "Pyricularia oryzae [1]; Pyricularia oryzae", "value": 86, "unit": "%"}
    ]},
    {"compound": "Cc1nc2c(F)c(F)ccc2cc1Oc1cccc(F)c1C(C)(C)O", "note": "[Ipflufenoquin]", "values": [
      {"measurement": "Control Efficacy", "setting": "Pyricularia oryzae [1]; spray concentration 0.01 ppm", "value": 0},
      {"measurement": "Control Efficacy", "setting": "Pyricularia oryzae [1]; spray concentration 0.1 ppm", "value": 76}
    ]},
    {"compound": "CNC(=O)C(OC)c1ccccc1COc1cc(C)ccc1C", "note": "(centres unmarked) [Mandestrobin]", "values": [
      {"measurement": "Control Efficacy", "setting": "Pyricularia oryzae [1]; spray concentration 0.1 ppm", "value": 0}
    ]},
    {"compound": "CC(O)(Cn1cncn1)c1ccc(Oc2ccc(Cl)cc2)cc1C(F)(F)F", "note": "(centres unmarked) [Mefentrifluconazole]", "values": [
      {"measurement": "Control Efficacy", "setting": "Pyricularia oryzae [1]; spray concentration 25 ppm", "value": 35},
      {"measurement": "Control Efficacy", "setting": "Pyricularia oryzae [1]; spray concentration 100 ppm", "value": 44}
    ]},
    {"compound": "Cc1nn(C)c(F)c1C(=O)Nc1ccccc1C(C)CC(C)C", "note": "(centres unmarked) [Penflufen]", "values": [
      {"measurement": "Control Efficacy", "setting": "Pyricularia oryzae [1]; spray concentration 1 ppm", "value": 11}
    ]},
    {"compound": "CO/C=C(/C(=O)OC)c1ccccc1COc1cccc(C(F)(F)F)n1", "note": "[Picoxystrobin]", "values": [
      {"measurement": "Control Efficacy", "setting": "Pyricularia oryzae [1]; spray concentration 0.01 ppm", "value": 22},
      {"measurement": "Control Efficacy", "setting": "Pyricularia oryzae [1]; spray concentration 0.1 ppm", "value": 68}
    ]},
    {"compound": "CCCC1COC(Cn2cncn2)(c2ccc(Cl)cc2Cl)O1", "note": "(centres unmarked) [Propiconazole]", "values": [
      {"measurement": "pest or weed control at 100 ppm", "setting": "Pyricularia oryzae [1]; Pyricularia oryzae", "value": 72, "unit": "%"},
      {"measurement": "Control Efficacy", "setting": "Pyricularia oryzae [2]; spray concentration 52 ppm", "value": 55}
    ]},
    {"compound": "OC(Cc1ccccc1Cl)(Cn1nc[nH]c1=S)C1(Cl)CC1", "note": "(centres unmarked) [Prothioconazole]", "values": [
      {"measurement": "pest or weed control at 1 ppm", "setting": "Pyricularia oryzae [1]; Pyricularia oryzae", "value": 39, "unit": "%"},
      {"measurement": "pest or weed control at 25 ppm", "setting": "Pyricularia oryzae [1]; Pyricularia oryzae", "value": 82, "unit": "%"},
      {"measurement": "pest or weed control at 100 ppm", "setting": "Pyricularia oryzae [1]; Pyricularia oryzae", "value": 95, "unit": "%"}
    ]},
    {"compound": "COC(=O)N(OC)c1ccccc1COc1ccn(-c2ccc(Cl)cc2)n1", "note": "[Pyraclostrobin]", "values": [
      {"measurement": "pest or weed control at 0.01 ppm", "setting": "Pyricularia oryzae [1]; Pyricularia oryzae", "value": 44, "unit": "%"},
      {"measurement": "pest or weed control at 0.1 ppm", "setting": "Pyricularia oryzae [1]; Pyricularia oryzae, read-out: Control Efficacy, spray concentration 0.1 ppm", "value": 64, "unit": "%"}
    ]},
    {"compound": "O=C(Nc1ccccc1-c1ccc(F)c(F)c1)c1nccnc1C(F)(F)F", "note": "[Pyraziflumid]", "values": [
      {"measurement": "Control Efficacy", "setting": "Pyricularia oryzae [1]; spray concentration 10 ppm", "value": 0},
      {"measurement": "Control Efficacy", "setting": "Pyricularia oryzae [1]; spray concentration 100 ppm", "value": 56}
    ]},
    {"compound": "O=C1CCc2cccc3c2N1CC3", "note": "[Pyroquilon]", "values": [
      {"measurement": "pest or weed control at 100 ppm", "setting": "Pyricularia oryzae [1]; Pyricularia oryzae", "value": 22, "unit": "%"}
    ]},
    {"compound": "CC(C)(C)C(O)(CCc1ccc(Cl)cc1)Cn1cncn1", "note": "(centres unmarked) [Tebuconazole]", "values": [
      {"measurement": "pest or weed control at 10 ppm", "setting": "Pyricularia oryzae [1]; Pyricularia oryzae, read-out: Control Efficacy, spray concentration 10 ppm", "value": 58, "unit": "%"},
      {"measurement": "Control Efficacy", "setting": "Pyricularia oryzae [2]; spray concentration 52 ppm", "value": 63}
    ]},
    {"compound": "CC(=O)Oc1c(C)c(C)nc2c(F)cc(C(C)(C)C)cc12", "note": "[Tebufloquin]", "values": [
      {"measurement": "Control Efficacy", "setting": "Pyricularia oryzae [1]; spray concentration 10 ppm", "value": "84 and 76 and 86 and 51 and 48"},
      {"measurement": "Control Efficacy", "setting": "Pyricularia oryzae [1]; spray concentration 20 ppm", "value": "97 and 90 and 70"},
      {"measurement": "Control Efficacy", "setting": "Pyricularia oryzae [2]; spray concentration 83 ppm, lesions on uppermost unfolded leaf of 50 seedlings", "value": "80 and 81"}
    ]},
    {"compound": "CON=C(C(=O)OC)c1ccccc1CON=C(C)c1cccc(C(F)(F)F)c1", "note": "[Trifloxystrobin]", "values": [
      {"measurement": "pest or weed control at 0.01 ppm", "setting": "Pyricularia oryzae [1]; Pyricularia oryzae", "value": 75, "unit": "%"}
    ]},
    {"compound": "Inpyrfluxam", "values": [
      {"measurement": "Control Efficacy", "setting": "Pyricularia oryzae [1]; spray concentration 100 ppm", "value": 74}
    ]}
  ]
}
